Laboratory results published in patent publication US20220313670A1, “Methods Of Treating Fabry Disease In Patients Having Renal Impairment” (Amicus Therapeutics, Inc., priority 2019, published 2022).
Where two headings read alike, the source gives them in different places.

Tests used:
lyso-Gb3 = test: Plasma lyso-Gb3 in Fabry patients on migalastat; assay type: in vivo, human
Excerpt: In further embodiments, the method further comprises measuring lyso-Gb3 in one or more plasma samples from the patient. A first baseline lyso-Gb3 level may be determined during the first time period. As used herein, “baseline lyso-Gb3 level” refers to the lowest plasma lyso-Gb3 value measured during a given time period or dosing regimen. […] Thus, in further embodiments, the administration of the second time period is begun after an increase (e.g., of at least about 20, 25, 30, 33, 35, 40, 45 or 50% and/or 1, 1.25, 1.5, 1.75, 2, 2.25, 2.5 or 3 nM) above the first baseline lyso-Gb3 level is measured. […] Lyso-Gb3 levels may be measured at varying frequencies (e.g., about once every 2, 3, 4 or 5 months). It is thought that it takes about 3 months for a baseline lyso-Gb3 level to be established once a dosing regimen has been started.
Lyso-Gb3 can be measured via methods known in the art using validated assays. […] For example, one process of measuring plasma lyso-Gb3 is described in Hamler, Rick, et al. “Accurate quantitation of plasma globotriaosylsphingosine (lyso-Gb3) in normal individuals and Fabry disease patients by liquid chromatography—tandem mass spectrometry (LC—MS/MS).” Molecular Genetics and Metabolism, Volume 114.2 (2015):S51. In one or more embodiments, lyso-Gb3 is measured in samples from a patient's urine.

[1] = FACETS (011) population PK from sparse blood sampling in Fabry patients; assay type: in vivo, human; conditions: for Comparison to FACETS PPK (migalastat concentration): Fabry patients of FACETS
Excerpt: One or more of the dosing regimens described herein are particularly suitable for Fabry patients who have some degree of renal impairment. […] FACETS (011, NCT00925301) was a 24-month trial, including a 6-month double-blind, placebo-controlled period, in 67 enzyme replacement therapy (ERT)-naive patients. ATTRACT (012, NCT01218659) was an active-controlled, 18-month trial in 57 ERT-experienced patients with a 12-month open-label extension (OLE). Both the FACETS and ATTRACT studies included patients having an estimated glomerular filtration rate (eGFR) of ≥30 ml/min/1.73 m^2. Accordingly, both studies included Fabry patients with normal renal function as well as patients with mild and moderate renal impairment, but neither study included patients with severe renal impairment.
Thus, two Fabry patients with renal impairment were evaluated. One patient (P1) had moderate renal impairment, while the other patient (P2) had severe renal impairment. […] The comparison with the results from the FACETS study allows for comparison of PK in the Fabry population with mostly normal, but some mild and a few moderately impaired Fabry patients. None had severe renal impairment because these patients were excluded from the study.

[2] = eGFR (MDRD), IDMS traceable, in Fabry patients on migalastat; assay type: in vivo, human; set-up: eGFR(MDRD), IDMS Traceable: unit not given here
Protocol: An estimated GFR (eGFR) is calculated from serum creatinine using an isotope dilution mass spectrometry (IDMS) traceable equation. Two of the most commonly used equations for estimating glomerular filtration rate (GFR) from serum creatinine are the Chronic Kidney Disease Epidemiology Collaboration (CKD-EPI) equation and the Modification of Diet in Renal Disease (MDRD) Study equation. Both the MDRD Study and CKD-EPI equations include variables for age, gender, and race, which may allow providers to observe that CKD is present despite a serum creatinine concentration that appears to fall within or just above the normal reference interval. The following is the IDMS-traceable MDRD Study equation (for creatinine methods calibrated to an IDMS reference method): […]

[3] = Earlier single and multiple ascending dose plasma and urine pharmacokinetic studies in healthy volunteers and Fabry patients; conditions: human, in vivo
[4] = cited from earlier work; for Mean percent of the dose recovered in urine: single ascending dose (SAD) study
cardiac repolarization = conditions: 150 mg and 1250 mg single doses; cited from earlier work
Fabry disease = test: Phase 3 studies (FACETS, ATTRACT) of migalastat 150 mg every other day in Fabry patients; assay type: in vivo, human
Excerpt: One or more of the dosing regimens described herein are particularly suitable for Fabry patients who have some degree of renal impairment. […]00925301) was a 24-month trial, including a 6-month double-blind, placebo-controlled period, in 67 enzyme replacement therapy (ERT)-naive patients. ATTRACT (012, NCT01218659) was an active-controlled, 18-month trial in 57 ERT-experienced patients with a 12-month open-label extension (OLE). […] Accordingly, both studies included Fabry patients with normal renal function as well as patients with mild and moderate renal impairment, but neither study included patients with severe renal impairment. […] With a slowing in the ability to clear the drug from the body there can be an increasing exposure to the patient to the drug. Thus, in some embodiments a dose adjustment protocol is provided to inform physicians of the best dose taking into consideration the current clearance profile from the body. Dose adjustment is particularly difficult with a chaperone because it is an inhibitor, and a delicate balance must be reached such that the chaperone is present in amounts great enough to be therapeutic, but also not so great that the chaperone inhibits enzyme function (which would exacerbate the disease).

[5] = Fabry patient P1, 18 Month Visit
[6] = Fabry patient P1, 24 Month Visit
[7] = Fabry patient P1, 34-Month Visit
[8] = Fabry patient P3, August 2014, QOD
[9] = Fabry patient P3, August 2017, Q4D
[10] = Fabry patient P3, February 2014, QOD
[11] = Fabry patient P3, February 2018, Q7D
[12] = Fabry patient P3, January 2018, Q7D
[13] = Fabry patient P3, June 2015, QOD
[14] = Fabry patient P3, March 2011, QOD
[15] = Fabry patient P3, March 2016, QOD
[16] = Fabry patient P3, May 2017, Q4D
[17] = Fabry patient P3, November 2017, Q4D
[18] = Fabry patient P3, September 2010, QOD
[19] = Fabry patient P3, September 2015, QOD

OC[C@H]1NC[C@H](O)[C@@H](O)[C@H]1O [migalastat, (2R,3S,4R,55)-2-(hydroxymethyl) piperdine-3,4,5-triol]
Lyso-Gb3 (lyso-Gb3; [5]): 11.1 nM/L | Lyso-Gb3 (lyso-Gb3; [6]): 13.1 nM/L | Lyso-Gb3 (lyso-Gb3; Fabry patient P1, 30 Month Visit): 10.8 nM/L | Lyso-Gb3 (lyso-Gb3; [7]): 9.3 nM/L | change of plasma lyso-Gb3 from previous visits (lyso-Gb3; Fabry patient P1, decline in renal function to eGFR of 32 mL/min/1.73 m^2): has not shown clinically relevant changes | Lyso-Gb3 (lyso-Gb3; [8]): 13.10 nmol/L | Lyso-Gb3 (lyso-Gb3; [9]): 9.85 nmol/L | Lyso-Gb3 (lyso-Gb3; [10]): 11.10 nmol/L | Lyso-Gb3 (lyso-Gb3; Fabry patient P3, February 2015, QOD): 10.80 nmol/L | Lyso-Gb3 (lyso-Gb3; [11]): 7.04 nmol/L | Lyso-Gb3 (lyso-Gb3; [12]): 9.04 nmol/L | Lyso-Gb3 (lyso-Gb3; [13]): 9.30 nmol/L | Lyso-Gb3 (lyso-Gb3; [14]): 24.15 nmol/L | Lyso-Gb3 (lyso-Gb3; [15]): 8.46 nmol/L | Lyso-Gb3 (lyso-Gb3; [16]): 13.10 nmol/L | Lyso-Gb3 (lyso-Gb3; [17]): 8.55 nmol/L | Lyso-Gb3 (lyso-Gb3; [18]): 27.30 nmol/L | Lyso-Gb3 (lyso-Gb3; [19]): 7.36 nmol/L | Comparison to FACETS PPK (migalastat concentration) ([1]; 3 Hrs Post, (coefficient of variation)): 1180 (31.0%) | Comparison to FACETS PPK (migalastat concentration) ([1]; 48 Hrs Post): 8.70 | Comparison to FACETS PPK (migalastat concentration) ([1]; 48 h): 8.70 | Comparison to FACETS PPK (migalastat concentration) ([1]; Pre-dose (0 h)): 8.70 | concentration at 48 h ([1]; human, plasma, 150 mg, FACETS population PK, 150 mg QOD, read-out: PPK Cmin): 8.7 ng/mL | AUC(0-t) ([1]; human, plasma, 150 mg, 011 PPK (CLcr ≥30-≥90 mL/min), N 62, QOD regimen, read-out: AUC0-t, Geometric mean): 9030 ng·h/mL | concentration at 48 h ([1]; human, plasma, 150 mg, 011 PPK (CLcr ≥30-≥90 mL/min), N 62, QOD regimen, read-out: C48 h, Mean): 7.54 ng/mL | Cmax ([1]; human, plasma, 150 mg, 011 PPK (CLcr ≥30-≥90 mL/min), N 62, QOD regimen, read-out: Cmax, Geometric mean (CV %)): 1180 ng/mL | half-life ([1]; human, plasma, 150 mg, 011 PPK (CLcr ≥30-≥90 mL/min), N 62, QOD regimen, read-out: t1/2, Mean (converted)): 20.6 h | AUC ([1]; human, plasma, 150 mg, reference AUC of the 011 PK model, the same value printed on every subject line): 9520 ng·h/mL | eGFR(MDRD), IDMS Traceable [2, 5]: 42 | eGFR(MDRD), IDMS Traceable [2, 6]: 37 | eGFR(MDRD), IDMS Traceable [2, 7]: 32 | eGFR ([2]; Fabry patient P3, Aug ′15): 32 mL/min/1.73 m^2 | eGFR ([2]; Fabry patient P3, Aug ′17): 19 mL/min/1.73 m^2 | eGFR(MDRD), IDMS Traceable [2, 8]: 37 | eGFR(MDRD), IDMS Traceable [2, 9]: 19 | eGFR(MDRD), IDMS Traceable [2, 10]: 42 | eGFR(MDRD), IDMS Traceable [2, 11]: 13 | eGFR(MDRD), IDMS Traceable [2, 12]: 13 | eGFR(MDRD), IDMS Traceable [2, 13]: 32 | eGFR ([2]; Fabry patient P3, Mar ′11): 59 mL/min/1.73 m^2 | eGFR(MDRD), IDMS Traceable [2, 14]: 59 | eGFR(MDRD), IDMS Traceable [2, 15]: 28 | eGFR(MDRD), IDMS Traceable [2, 16]: 21 | eGFR ([2]; Fabry patient P3, May ′17): 21 mL/min/1.73 m^2 | eGFR ([2]; Fabry patient P3, Nov ′17): 15 mL/min/1.73 m^2 | eGFR(MDRD), IDMS Traceable [2, 17]: 15 | eGFR(MDRD), IDMS Traceable [2, 18]: 54 | eGFR(MDRD), IDMS Traceable [2, 19]: 33 | route of excretion [3]: primarily excreted unchanged in urine | accumulation of plasma migalastat ([4]; multiple ascending dose studies): only minimal accumulation | Mean Cmax and AUC0-t values versus dose ([4]; oral doses from 75 mg to 1250 mg): increased in a dose-proportional manner | Mean percent of the dose recovered in urine ([4]; 25 mg): 32.2% | Mean percent of the dose recovered in urine ([4]; 75 mg): 43.0% | Mean percent of the dose recovered in urine ([4]; 225 mg): 49.3% | Mean percent of the dose recovered in urine ([4]; 675 mg): 48.5% | time to maximum concentrations ([4]; single-dose studies, oral, healthy volunteers and Fabry patients with normal to mildly impaired renal function (range, 1 to 6 hrs)): approximately 3 hours | effect on cardiac repolarization (cardiac repolarization): negative | disease progression as shown by surrogate markers (Fabry disease): slowed the progression of the disease
